Laboratory results as given in patent US9029337B2, “Modulation of factor 7 expression” (Isis Pharmaceuticals, Inc., priority 2007, dated 2015).
Strand notation (5' to 3'): a small letter for the sugar, then the base; units joined by * are phosphorothioate-linked, units joined directly phosphodiester-linked; [ ] holds rarer units or linkages, { } end groups; capitals alone tell only the bases. e = 2'-O-(2-methoxyethyl) (MOE); [5mC] = 5-methylcytosine; d = 2'-deoxy (DNA)

Tests used:
Assay type in all cases: cell-based
human Factor 7 mRNA [1] = experiment: Dose-dependent antisense inhibition of human Factor 7 in HepB3 cells, electroporation
Procedure: (§1) The gapmers were also transfected via electroporation and their dose-dependent inhibition of human Factor 7 mRNA was measured. Cells were plated at a density of 20,000 cells per well and transfected via electroporation with 3.125 μM, 6.25 μM, 12.5 μM, 25 μM, 50 μM, and 100 μM concentrations of antisense oligonucleotide, as specified in Table 15. After a treatment period of approximately 16 hours, RNA was isolated from the cells and Factor 7 mRNA levels were measured by quantitative real-time PCR. Human Factor 7 primer probe set RTS 2927 was used to measure mRNA levels. Factor 7 mRNA levels were adjusted according to total RNA content, as measured by RIBOGREEN®. Results are presented as percent inhibition of Factor 7, relative to untreated control cells.
as §1, with “Cells were” for “The gapmers were also transfected via electroporation and their dose-dependent inhibition of human Factor 7 mRNA was measured. Cells were”, “in […]. After a” for “in Table 15. After a”, “cells and human Factor 7” for “cells and Factor 7”

human Factor 7 mRNA [2] = experiment: Antisense inhibition of human Factor 7 mRNA in HepB3 cells, 50 nM antisense oligonucleotide, lipofectin; details: for % Inhibition: Table 13 (microwalk), 50 nM, lipofectin, approximately 24 hours; for % Inhibition of human Factor 7 mRNA levels: gapmers targeted to nucleobases 4868 to 4899 of SEQ ID NO: 1, Table 8
Method in brief: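 Percent inhibition of Factor 7 mRNA, relative to untreated control, comes from real-time RT-PCR with RIBOGREEN normalization, using primer probe set RTS 2927 in some runs. RNA was taken roughly 24 h after lipofectin delivery of 50 nM oligonucleotide into HepB3 cells.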

human Factor 7 mRNA [3] = experiment: Dose-dependent antisense inhibition of human Factor 7 in HepB3 cells, lipofectin; details: HepB3 cells, approx. 16 hours (Table 14)
Method in brief: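 HepB3 cells (4,000/well) lipofectin-transfected with antisense oligonucleotide at 3.125 or 6.25 up to 100 nM for ~16 h. Factor 7 mRNA measured by real-time RT-PCR with primer probe set RTS 2927, adjusted to RIBOGREEN total RNA; expressed as percent inhibition versus untreated control cells.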

[4] = 3.125 μM, approx. 16 hours (Table 15, Example 7)
[5] = 3.125 μM, approx. 16 hours (Table 16, Example 8 confirmation)
[6] = 6.25 μM, approx. 16 hours (Table 15, Example 7)
[7] = 6.25 μM, approx. 16 hours (Table 16, Example 8 confirmation)
[8] = 12.5 μM, approx. 16 hours (Table 15, Example 7)
[9] = 12.5 μM, approx. 16 hours (Table 16, Example 8 confirmation)
[10] = 25 μM, approx. 16 hours (Table 15, Example 7)
[11] = 25 μM, approx. 16 hours (Table 16, Example 8 confirmation)
[12] = 50 μM, approx. 16 hours (Table 15, Example 7)
[13] = 50 μM, approx. 16 hours (Table 16, Example 8 confirmation)
[14] = 100 μM, approx. 16 hours (Table 15, Example 7)
[15] = 100 μM, approx. 16 hours (Table 16, Example 8 confirmation)

Row | Substance | percent inhibition of Factor 7 mRNA, relative to untreated control cells (human Factor 7 mRNA [1]; [4]) [%] | percent inhibition of Factor 7 mRNA, relative to untreated control cells (human Factor 7 mRNA [1]; [5]) [%] | percent inhibition of Factor 7 mRNA, relative to untreated control cells (human Factor 7 mRNA [1]; [6]) [%] | percent inhibition of Factor 7 mRNA, relative to untreated control cells (human Factor 7 mRNA [1]; [7]) [%] | percent inhibition of Factor 7 mRNA, relative to untreated control cells (human Factor 7 mRNA [1]; [8]) [%] | percent inhibition of Factor 7 mRNA, relative to untreated control cells (human Factor 7 mRNA [1]; [9]) [%] | percent inhibition of Factor 7 mRNA, relative to untreated control cells (human Factor 7 mRNA [1]; [10]) [%] | percent inhibition of Factor 7 mRNA, relative to untreated control cells (human Factor 7 mRNA [1]; [11]) [%] | percent inhibition of Factor 7 mRNA, relative to untreated control cells (human Factor 7 mRNA [1]; [12]) [%] | percent inhibition of Factor 7 mRNA, relative to untreated control cells (human Factor 7 mRNA [1]; [13]) [%] | percent inhibition of Factor 7 mRNA, relative to untreated control cells (human Factor 7 mRNA [1]; [14]) [%] | percent inhibition of Factor 7 mRNA, relative to untreated control cells (human Factor 7 mRNA [1]; [15]) [%] | % Inhibition (human Factor 7 mRNA [2]) [%] | percent inhibition of Factor 7 mRNA, relative to untreated control cells (human Factor 7 mRNA [3]; 3.125 nM) [%] | percent inhibition of Factor 7 mRNA, relative to untreated control cells (human Factor 7 mRNA [3]; 12.5 nM) [%] | percent inhibition of Factor 7 mRNA, relative to untreated control cells (human Factor 7 mRNA [3]; 25 nM) [%] | percent inhibition of Factor 7 mRNA, relative to untreated control cells (human Factor 7 mRNA [3]; 50 nM) [%] | percent inhibition of Factor 7 mRNA, relative to untreated control cells (human Factor 7 mRNA [3]; 100 nM) [%] | percent inhibition of Factor 7 mRNA, relative to untreated control cells (human Factor 7 mRNA [3]) [%] | further results
1 | 422086 (antisense eT*eG*e[5mC]*eA*eT*dG*dG*dT*dG*dA*dT*dG*d[5mC]*dT*dT*e[5mC]*eT*eG*eA*eA) [compound 422086] | 20 | 25 | 34 | 48 | 44 | 74 | 63 | 82 | 75 | 86 | 84 | 90 | 81 | 8 | 46 | 65 | 83 | 90 | 26 | –
2 | 422229 (antisense eA*eT*dG*d[5mC]*dA*dT*dG*dG*dT*dG*dA*dT*dG*d[5mC]*dT*eT*e[5mC]*eT*eG*eA) [compound 422229] | 21 | 30 | 30 | 45 | 33 | 67 | 44 | 79 | 65 | 90 | 77 | 92 | 71 | 21 | 53 | 72 | 86 | 92 | 32 | –
3 | 422152 (antisense eA*eT*eG*d[5mC]*dA*dT*dG*dG*dT*dG*dA*dT*dG*d[5mC]*dT*dT*d[5mC]*eT*eG*eA) [compound 422152] | 14 | – | 22 | – | 32 | – | 44 | – | 65 | – | 76 | – | 74 | 18 | 47 | 67 | 83 | 89 | 29 | –
4 | 422150 (antisense eG*e[5mC]*eA*dT*dG*dG*dT*dG*dA*dT*dG*d[5mC]*dT*dT*d[5mC]*dT*dG*eA*eA*eT) [compound 422150] | 17 | 0 | 20 | 31 | 40 | 53 | 54 | 67 | 68 | 77 | 83 | 86 | 74 | 9 | 38 | 59 | 79 | 87 | 23 | –
5 | 422183 (antisense eG*e[5mC]*eG*d[5mC]*d[5mC]*dA*d[5mC]*d[5mC]*d[5mC]*dG*d[5mC]*d[5mC]*dG*dG*d[5mC]*dT*d[5mC]*eT*eG*e[5mC]) [compound 422183] | 16 | 2 | 28 | 3 | 37 | 24 | 44 | 50 | 59 | 64 | 71 | 71 | – | 28 | 56 | 78 | 84 | 88 | 37 | % Inhibition (human Factor 7 mRNA levels) (human Factor 7 mRNA [2]; oligonucleotides targeted to nucleobases 13760 to 13789 of SEQ ID NO: 1 (Table 10)): 79%
6 | 422215 (antisense eG*eT*eT*d[5mC]*dT*dG*d[5mC]*dA*dG*dG*dA*dG*d[5mC]*dG*dG*d[5mC]*d[5mC]*eT*eA*eA) [compound 422215] | 11 | – | 9 | – | 31 | – | 50 | – | 68 | – | 84 | – | – | 13 | 54 | 65 | 84 | 82 | 30 | % Inhibition of human Factor 7 mRNA levels (human Factor 7 mRNA [2]): 73%
7 | 422217 (antisense eG*eA*eG*dT*dT*d[5mC]*dT*dG*d[5mC]*dA*dG*dG*dA*dG*d[5mC]*dG*dG*e[5mC]*e[5mC]*eT) [compound 422217] | 15 | – | 19 | – | 29 | – | 55 | – | 61 | – | 83 | – | – | 8 | 45 | 63 | 79 | 83 | 18 | % Inhibition of human Factor 7 mRNA levels (human Factor 7 mRNA [2]): 75%
